Consider four compounds from patent publication US10258036B2, “Extract of Euodia suaveolens Scheff, repellent compositions and use thereof” (CHARABOT, priority 2009, dated 2019).

The conditions of data set [1]: in vivo; cited from earlier work.
Data set [2] deals with Aedes aegypti. The settings on record: DEET at a dose of 23.8 percent, laboratory; cited from earlier work.
The subject of data set [3] is Aedes aegypti. Kind of data set: Repellent efficacy test on hairless mouse coated with test product, exposed to female mosquitoes. In kind it is in vivo. The settings on record: concentration of 3% or even less of synthetic evodone. The method, then:
In this respect, the invention is illustrated by the following efficacy tests, carried out in the laboratory, where the formulas are not degraded through the effects of abrasion, exudation, sunlight, temperature or even swimming in the sea. […] The tests are carried out on female Aedes aegypti mosquitoes aged 6 to 10 days having undergone a prior 24-hour period of fasting (no blood meal) in order to increase their aggressiveness. […] 30 minutes after product application, the mouse is introduced into a cage containing approximately 200 female mosquitoes (prior removal of the males using a food gradient). The test lasts 5 minutes and during this period the number of mosquitoes having landed on the mouse (“landing” effect: number of mosquitoes that land on the treated area and leave without biting) and the number of effective bites, are recorded. The test is stopped after 5 effective bites (“stop” in the Tables below). […] Based on the outcome of the first repetition, repetitions are performed at time intervals of 30 minutes in order to provide a more accurate limit for the duration of protection. During and between the runs, the mice are maintained in a “tropical” like atmosphere under controlled conditions at 27+/−1° C. and 70+/−5% relative humidity. The cages are changed upon each unit test and placed 3 meters apart. […]

In data set [4] the test system is mosquitoes. The settings on record: cited from earlier work.

`CCN(CC)C(=O)c1cccc(C)c1` [DEET, N,N-diethyl-3-methylbenzamide]: in data set [1], the “share of a dose absorbed through the skin” value is on record as 30%. Further, in data set [2], the protection period result was “more than 5 hours”. With `Cc1coc2c1C(=O)C[C@@H](C)C2` [evodone, (6S)3-6 dimethyl 6,7 dihydro 5H benzofuran-4-one], the “repellent efficacy compared with DEET” value in data set [3] is reported as “as effective as a concentration of 30% of DEET”.

As to `CCC(C)OC(=O)N1CCCCC1CCO` (centres unmarked) [icaridin, 1-methylpropylester], the “concentration with efficacy comparable to that of 30% DEET” value in data set [4] is 19.2%.

As for p menthane 3.8 diol [citriodiol], in data set [4], the “maximum persistence of protection” value was not above 6 h.
